The text below walks through data of patent publication US8003687B2, “Esters of compounds in the leptomycin family” (Kosan Biosciences Incorporated, priority 2005, dated 2011).

Where two headings read alike, the source gives them in different places.

One assay relates to A549. The assay can be described thus: inhibition of tumor cell proliferation, A549. Type of assay: cell-based, human. The procedure: (§1) The biological activity of compounds of this invention was evaluated by measuring their inhibitory effect on the proliferation of various tumor cell lines. MCF-7, A549, and SKOV-3 are human breast, lung, and ovary cancer cell lines, respectively. NCI/ADR is a multi-drug resistant breast cancer cell line. CCRF-CEM and CCRF-CEM/PTX are human leukemia cell lines, the latter being a paclitaxel-resistant subline.

The test system of another assay is CCRF-CEM. The assay can be described thus: inhibition of tumor cell proliferation, CCRF-CEM. It counts as cell-based, human. As to conditions: read-out: Tumor Cell Line (IC50, nM) CCRF-CEM. The procedure:
as §1

A further assay relates to MCF-7. The assay can be described thus: inhibition of tumor cell proliferation, MCF-7. It counts as cell-based, human. The procedure: as §1
For the next assay, the system named is SKOV-3. The assay can be described thus: inhibition of tumor cell proliferation, SKOV-3. Type of assay: cell-based, human. On the procedure:
as §1

The next assay deals with CCRF-CEM/PTX. The assay can be described thus: inhibition of tumor cell proliferation, CCRF-CEM/PTX. It counts as cell-based, human. The note with it: read-out: Tumor Cell Line (IC50, nM) CCRF-CEM/PTX. The procedure:
as §1

In a further assay the test system is NCI/ADR. The assay can be described thus: inhibition of tumor cell proliferation, NCI/ADR. The note with it: read-out: Tumor Cell Line (IC50, nM) NCI/ADR. Type of assay: cell-based. The procedure: as §1
Where [1] appears, read: Homo sapiens, A549, read-out: Tumor Cell Line (IC50, nM) A549.
Where [2] appears, read: Homo sapiens, MCF7, read-out: Tumor Cell Line (IC50, nM) MCF-7.
Where [3] appears, read: Homo sapiens, SK-OV-3, read-out: Tumor Cell Line (IC50, nM) SKOV-3.

Regarding `CCC(=C/[C@H](C)C/C=C/C(C)=C/[C@@H](C)C(=O)[C@@H](C)[C@H](O)[C@@H](C)C/C(C)=C/C(=O)OCc1ccccc1)/C=C/[C@@H]1OC(=O)C=C[C@@H]1C` [Compound 1], the IC50 with A549 (setting [1]) was 5.3 nM; in the assay on CCRF-CEM (Homo sapiens, CCRF-CEM), 2.7 nM; in the assay on MCF-7 (setting [2]), 3 nM; in the assay with SKOV-3 (setting [3]), 17 nM; with CCRF-CEM/PTX (Homo sapiens, CCRF-CEM) it was 4.8 nM; in the assay on NCI/ADR (Homo sapiens, NCI/ADR-RES), 38 nM.

For `CCC(=C/[C@H](C)C/C=C/C(C)=C/[C@@H](C)C(=O)[C@@H](C)[C@H](O)[C@@H](C)C/C(C)=C/C(=O)OCC(=O)OC)/C=C/[C@@H]1OC(=O)C=C[C@@H]1C` [Compound 2], the IC50 with A549 (setting [1]) amounted to 2.3 nM; with CCRF-CEM (Homo sapiens, CCRF-CEM) it was 1.1 nM; with MCF-7 (setting [2]), 0.33 nM; in the assay on SKOV-3 (setting [3]) it was 5.3 nM; in the assay with CCRF-CEM/PTX (Homo sapiens, CCRF-CEM) it was 1 nM; in the assay on NCI/ADR (Homo sapiens, NCI/ADR-RES), 5.2 nM.

Consider `CCC(=C/[C@H](C)C/C=C/C(C)=C/[C@@H](C)C(=O)[C@@H](C)[C@H](O)[C@@H](C)C/C(C)=C/C(=O)OCc1cccc2cccnc12)/C=C/[C@@H]1OC(=O)C=C[C@@H]1C` [Compound 3], for which the IC50 in the assay on A549 (setting [1]) was found to be 5.3 nM; in the assay on CCRF-CEM (Homo sapiens, CCRF-CEM), 5.6 nM; in the assay on MCF-7 (setting [2]), 3.7 nM; in the assay on SKOV-3 (setting [3]) it was 24 nM; in the assay with CCRF-CEM/PTX (Homo sapiens, CCRF-CEM), 14 nM; in the assay on NCI/ADR (Homo sapiens, NCI/ADR-RES) it was 270 nM.

Regarding `CCC(=C/[C@H](C)C/C=C/C(C)=C/[C@@H](C)C(=O)[C@@H](C)[C@H](O)[C@@H](C)C/C(C)=C/C(=O)O)/C=C/[C@@H]1OC(=O)C=C[C@@H]1C` [LMB, Leptomycin B, reference compound], the IC50 was found to be 0.3 nM in the assay on A549 (A549, human lung cancer cell line, read-out: Tumor Cell Line (IC50, nM) A549); 0.65 nM in the assay on CCRF-CEM (CCRF-CEM, human leukemia cell line); 0.29 nM with MCF-7 (MCF7, human breast cancer cell line, read-out: Tumor Cell Line (IC50, nM) MCF-7); 1.5 nM with SKOV-3 (SK-OV-3, human ovary cancer cell line, read-out: Tumor Cell Line (IC50, nM) SKOV-3); 0.41 nM with CCRF-CEM/PTX (CCRF-CEM, human leukemia cell line, paclitaxel-resistant subline); 1 nM in the assay with NCI/ADR (Homo sapiens, NCI/ADR-RES, multi-drug resistant breast cancer cell line).

“LMB methyl ester [Compound 4, reference compound]”: the IC50 with A549 (human lung cancer cell line, read-out: Tumor Cell Line (IC50, nM) A549) is 2.4 nM; in the assay with CCRF-CEM (human leukemia cell line), 0.55 nM; in the assay on MCF-7 (human breast cancer cell line, read-out: Tumor Cell Line (IC50, nM) MCF-7), 1.9 nM; in the assay on SKOV-3 (human ovary cancer cell line, read-out: Tumor Cell Line (IC50, nM) SKOV-3), 8.2 nM; with CCRF-CEM/PTX (human leukemia cell line, paclitaxel-resistant subline) it was 0.63 nM; in the assay with NCI/ADR (multi-drug resistant breast cancer cell line), 13.1 nM.
